Data on one compound can be found in patent publication US11292803B2, “Bioreducible N-oxide-based probes for imaging of hypoxia” (THE BOARD OF TRUSTEES OF THE UNIVERSITY OF ILLINOIS, priority 2018, dated 2022).

SMILES strings stand for the structures.

Data set [1] in a line: Response of probe to Fe(II). The method, then:
FIG. 8. Ratiometric fluorescence turn-on response of HyP-1 (2 μM) in the presence of FeSO4 (20 μM) and FeSO4 (20 μM)+GSH (1 mM) in 50 mM HEPES buffer (pH 7.4, 0.1% v/v CrEL) after 1 h incubation at 37° C.
Fe(II)-mediated reduction of N-oxides has been exploited previously for the development of several fluorescent probes for this metal ion, thus it was critical for us to determine the response of HyP-1 to Fe(II). […] However, because intracellular concentrations of free iron are low due to sequestration by ferritin, this was not anticipated to be a major source of HyP-1 activation in vivo.

Data set [2] in a line: Response to metal ions and reactive oxygen, nitrogen and sulfur species. To be noted: 2 h, 37° C., phosphate buffer pH 7.4. The method, then:
FIG. 9. Ratiometric fluorescent turn-on response of HyP-1 (2 μM) in the presence of various metal ions in 0.1 M potassium phosphate buffer (pH 7.4, 0.1% v/v CrEL) after 2 h incubation at 37° C. Concentrations used were 2 mM for Na^+, Mg^2+, K^+ and Ca^2+, and 50 μM for all other metal ions.
FIG. 10. Ratiometric fluorescence turn-on response of HyP-1 (2 μM) in the presence of various reactive oxygen, nitrogen and sulfur species (100 μM) in 0.1 M potassium phosphate buffer (pH 7.4, 0.1% v/v CrEL) after 2 h incubation at 37° C.
(§1) In addition to Fe(II), the response of HyP-1 to a variety of alkali, alkaline earth and transition metals was also determined. […] To further evaluate the stability of HyP-1, a 10 μM solution of the probe was exposed to ambient light and temperature for up to 5 days. Additionally, a 10 μM solution of HyP-1 supplemented with human plasma was incubated at 37° C. for 3 hours. […] As mentioned previously, a major limitation of 2-nitroimidazole-based hypoxia probes is their susceptibility to oxygen-independent reduction via two-electron processes, such as by bacterial nitroreductases. […] Finally, the photostability of both HyP-1 and red-HyP-1 was evaluated via continuous PA image acquisition at 770 nm over the course of 1 hour.

A short description of data set [3]: Stability in human plasma. To be noted: 10 μM solution supplemented with human plasma, 37° C., 3 hours. The data set is classed as in vitro ADME. As for the experimental part:
FIG. 12. Fluorescence intensity (Ex.=670 nm) of HyP-1 (2 μM) at the indicated time points during incubation in 0.1 M potassium phosphate buffer (pH 7.4) supplemented with human plasma (20% v/v) at 37° C. for 3 h.
as §1

The subject of data set [4] is 4T1 murine mammary carcinoma cells. Briefly: Ratiometric fluorescence microscopy in living cells. The format is cell-based. To be noted: 4T1 cells, epifluorescence microscope Cy7/Cy5, after 6 hours. The method, then:
After establishing excellent selectivity and responsiveness to hypoxic conditions in vitro, the performance of HyP-1 in living cells was evaluated before moving to in vivo studies. 4T1 murine mammary carcinoma cells were treated with a […] solution of HyP-1 and incubated at 37° C. either in a standard atmosphere containing 20% oxygen (normoxic conditions), or in an airtight chamber containing <0.1% oxygen (hypoxic conditions). Imaging was performed at 2, 4 and 6 hours using an epifluorescence microscope equipped with Cy5 and Cy7 filter sets to visualize HyP-1 and red-HyP-1, respectively (FIG. 5a).
Authenticated 4T1 cells were purchased from ATCC. Cells were grown in RPMI 1640 medium supplemented with 10% fetal bovine serum. Cells were cultured at 37° C. in 5% CO2 and 20% 02 for normoxic conditions. Hypoxic cell culture was performed by incubating cells in a sealed container with a Mitsubishi AnaeroPack™ anaerobic gas generator. Hypoxic conditions were verified with the use of a Mitsubishi RT Anaero-Indicator.
For fluorescence microscopy, cells were plated in 4-well chamber slides at an initial density of 1×10^4 cells/mL and allowed to grow until 60-80% confluent (approximately 6 days). Media was removed and cells were washed with PBS. […] Images were obtained using Cy5 and Cy7 filter cubes and analysed using ImageJ software (Version 1.50i).

For a further data set, the system named is 4T1 tumour allografts. Put plainly: In vivo fluorescence imaging of hypoxic tumour model. Also noted: species or system BALB/c mice. To be noted: intratumoural injection 50 μL, 100 μM; after 1 hour. The method, then: Tumour allografts were generated via subcutaneous implantation of 4T1 cells into the right flanks of BALB/c mice. The tumours were allowed to grow to volumes of 300-400 mm^3 prior to imaging. As an initial study to visualize the intratumoural conversion of HyP-1 to red-HyP-1 in real time, ratiometric fluorescence imaging was performed immediately following administration of HyP-1 (50 μL, 100 μM) via intratumoural or subcutaneous (control) injection.
All in vivo imaging experiments were performed with the approval of the Institutional Animal Care and Use Committee of the University of Illinois at Urbana-Champaign, following the principles outlined by the American Physiological Society on research animal use. Female mice (5-6 weeks old) were acquired from The Jackson Laboratory. A suspension of 0.5×10^6 cells in serum-free medium containing 50% v/v matrigel (100 μL) was subcutaneously injected into the right flank of each mouse. Tumours with volumes of 300-400 mm^3 formed after 12-15 days. […]
(§2) Images were obtained using epi-fluorescence with excitation filters of 675 and 745 and corresponding emission filters of 720 and 800, respectively. […] ROIs of equal area were drawn around signals, and the total radiant efficiency in each ROI was determined. Ratiometric signal was calculated by determining the ratio of radiant efficiency corresponding to 800 nm and 720 nm emissions.

A further data set concerns ischemic hindlimb tissue. Put plainly: In vivo fluorescence imaging of hindlimb ischemia model. Also noted: species or system BALB/c mice. To be noted: intramuscular 50 μL, 50 μM; over 1 hour. The method, then: To visualize the response of HyP-1 in a model of rapidly developing hypoxia, a murine hindlimb ischemia model of peripheral artery disease was employed. Ischemia was induced in the right hindlimb of BALB/c mice via ligation of the femoral artery. […] After a 1-hour recovery period, HyP-1 (50 μL, 50 μM) was administered via intramuscular injection into both hindlimbs of the mouse. To visualize the time-dependent response of HyP-1 in the ischemic and non-ischemic tissue, ratiometric fluorescence imaging was performed over the course of 1 hour immediately following injection. […]
All in vivo imaging experiments were performed with the approval of the Institutional Animal Care and Use Committee of the University of Illinois at Urbana-Champaign, following the principles outlined by the American Physiological Society on research animal use. […] Animals that underwent unsuccessful surgery as determined by laser Doppler perfusion imaging were excluded from analysis.
as §2

On to `CC[N+]([O-])(CC)c1ccc(-c2cc(-c3ccccc3)c3n2[B-](F)(F)[N+]2=C(c4ccc(OC)cc4)C=C(c4ccccc4)C2=N3)cc1` [HyP-1, 4-(5,5-difluoro-7-(4-methoxyphenyl)-1,9-diphenyl-5H-5λ^4,6λ^4-dipyrrolo[1,2-c:2′,1′-f][1,3,5,2]triazaborinin-3-yl)-N,N-diethylaniline oxide], for which the ratiometric turn-on in data set [1] (20 μM FeSO4 + 1 mM GSH, HEPES buffer, 1 h) came out at 35 fold; in data set [1] (20 μM FeSO4 in HEPES buffer, 1-hour incubation), 8 fold. Moreover, the “turn-on response to alkali, alkaline earth and transition metals” value in data set [2] is “No significant turn-on”. For the same compound, the “decomposition in human plasma” value in data set [3] was “no substantial decomposition”. In data set [4], the “ratiometric fluorescence response, hypoxic versus normoxic control” value turned out to be 1.6 fold. The “ratiometric fluorescent turn-on, tumour tissue versus subcutaneous control” value with 4T1 tumour allografts is listed as 5.6 fold. The “ratiometric signal, ischemic tissue versus control” value in the data set with ischemic hindlimb tissue was 3 fold.
